Assay results as given in patent US20040063906A1, “Pna analogues” (priority 2000, published 2004).
{LysNH2} = C-terminal lysine amide

Key:
[1] = test system: DNA target 5′-d(TTT-TXT-TTT-T)-3′, X = G; assay: Melting temperature (Tm) with mismatch DNA target, X = G; assay type: binding; conditions: Table 3; for Melting temperature (Tm), X = G: heating curve, medium salt buffer, pH 7.0; for Melting temperature (Tm), X = G, cooling curve: value in parentheses = cooling curve
Description: (§1) The complex between PNA 2110 and DNA was further evaluated.

5′-d(T)10 = assay: Melting temperature (Tm) with 5′-d(T)10; assay type: binding; conditions: for Melting temperature (Tm), 5′-d(T)10 / Melting temperature (Tm), 5′-d(T)10, cooling curve: Table 2; for Melting temperature (Tm), 5′-d(T)10 / Melting temperature (Tm), X = T: heating curve; for Melting temperature (Tm), 5′-d(T)10 / Melting temperature (Tm), 5′-d(T)10, cooling curve / Melting temperature (Tm), X = T: medium salt buffer, pH 7.0; for Melting temperature (Tm), 5′-d(T)10: 1 K/min; for Melting temperature (Tm), 5′-d(T)10, cooling curve / Melting temperature (Tm), X = T, cooling curve: value in parentheses = cooling curve; for Melting temperature (Tm), X = T / Melting temperature (Tm), X = T, cooling curve: Table 3, DNA target 5′-d(TTT-TXT-TTT-T)-3′
[2] = test system: DNA target 5′-d(TTT-TXT-TTT-T)-3′, X = C; assay: Melting temperature (Tm) with mismatch DNA target, X = C; assay type: binding; conditions: Table 3; for Melting temperature (Tm), X = C: heating curve, medium salt buffer, pH 7.0; for Melting temperature (Tm), X = C, cooling curve: value in parentheses = cooling curve
Description: as §1

5′-r(U)10 [3] = assay: Melting temperature (Tm) with 5′-r(U)10; assay type: binding; conditions: for Melting temperature (Tm), 5′-r(U)10 / Melting temperature (Tm), 5′-r(U)10, cooling curve: Table 2, medium salt buffer, pH 7.0; for Melting temperature (Tm), 5′-r(U)10: heating curve, 1 K/min; for Melting temperature (Tm), 5′-r(U)10, cooling curve: value in parentheses = cooling curve
[4] = test system: DNA target 5′-d(TTT-TXT-TTT-T)-3′, X = A; assay: Melting temperature (Tm) with mismatch DNA target, X = A; assay type: binding; conditions: Table 3
Description: as §1

5′-r(U)10 [5] = conditions: earlier work (17); cited from earlier work
poly dA = assay: Thermal denaturation (Tm) with poly dA; assay type: binding; conditions: for Melting temperature (Tm), Poly dA: measured from 10 to 90 °C, medium salt buffer, pH 7.0, 0.5 K/min; for Melting temperature (Tm), Poly dA, measured from 90 to 10 °C: value in parentheses
Description: (§2) Binding. The binding of PNA 1164 and PNA 2121 to poly dA and poly A was studied by thermal denaturation (Tm, Table 4). Also listed are the values given by Hickman et. al. (29) The thermal stability results presented in Table 4 clearly indicate that a T5-PNA-oligomer having (2R, 4S)-pyrrolidine backbone (PNA 2121) forms stronger complexes with both poly dA and poly A as compared to the (2R, 4R)-pyrrolidine isomer (entry 3) and also compared to the parent aminoethylglycine PNA (PNA 1164, entry 1). These complexes are ascribed to triplexes and further studies on (pyrimidine-purine mixed sequences) pyrrolidine PNAs are required to establish whether the present results can be extended to duplex structures and are generally valid. Such studies are now in progress.

poly A = assay: Thermal denaturation (Tm) with poly A; assay type: binding; conditions: for Melting temperature (Tm), Poly A: measured from 10 to 90 °C, medium salt buffer, pH 7.0, 0.5 K/min; for Melting temperature (Tm), Poly A, measured from 90 to 10 °C: value in parentheses
Description: as §2

[6] = test system: DNA parallel: 5′-dATG AGT ATG AGA-3′; assay: Thermal stability (Tm) of complex with parallel DNA; assay type: binding; conditions: medium salt buffer, pH 7.0
Method: (§3) The binding properties of pyr-PNA oligomer consisting of 10 monomers of the following sequence: H-CTC ATA CTC T-Lys-NH2 were investigated by measuring the thermal stability of the complexes formed with sequence complementary DNA and RNA, respectively, as compared to the stability for the corresponding aeg-PNA oligomer.
(§4) The stability expressed as the melting temperature (Tm), defined as the temperature at which 50% of the complexes have been dissociated, was determined as described by Arghya Ray et al (32).
(§5) Measured in medium salt buffer: 100 mM NaCl, 10 mM Na-phosphate, 0.1 mM EDTA, pH=7.0.

[7] = test system: RNA antiparallel: 5′-AGA GUA UGA GUA-3′; assay: Thermal stability (Tm) of complex with antiparallel RNA; assay type: binding; conditions: medium salt buffer, pH 7.0
Method: as §3, §4, §5

[8] = test system: DNA antiparallel: 5′-dAGA GTA TGA GTA-3′; assay: Thermal stability (Tm) of complex with antiparallel DNA; assay type: binding; conditions: pH 7.0; for Tm, DNA antiparallel, down: medium salt buffer
Method: as §3, §4, §5

[9] = test system: complementary DNA oligomers; assay: Melting temperature (Tm) with complementary DNA oligomer, Table 1; assay type: binding; conditions: medium salt buffer: 100 mM NaCl, 10 mM phosphate, 0.1 mM EDTA, pH 7.0; heating rate 1 K/min; UV 254 nm
Method: (§6) Binding affinity. The binding affinity towards complementary RNA and DNA oligomers was measured by obtaining the Tm-curves (Table 1). As expected, incorporation of both the pyrrolidinone and the pyrrolidine analogue into the PNA strand results in destabilization against DNA and RNA compared to unmodified PNA (entry 1 vs. 2 and 3).

[10] = test system: complementary RNA oligomers; assay: Melting temperature (Tm) with complementary RNA oligomer, Table 1; assay type: binding; conditions: medium salt buffer: 100 mM NaCl, 10 mM phosphate, 0.1 mM EDTA, pH 7.0; heating rate 1 K/min; UV 254 nm
Method: as §6

[11] = as opposed to the parent PNA 186
[12] = compared with PNA 186 (Table 2, entry 1 and 3)
[13] = melting curves at pH 9 (not shown)

In the case of H-(A#)10-LysNH2 [PNA 2110], the “Melting temperature (Tm), X = G” value [1] is reported as 68.5 °C, the “Melting temperature (Tm), X = G, cooling curve” value [1] is reported as 37.0 °C and the “Melting temperature (Tm), 5′-d(T)10” value (5′-d(T)10) is reported as 79.0 °C. For the same substance, the “Melting temperature (Tm), 5′-d(T)10, cooling curve” value (5′-d(T)10) was 41.0 °C, the “Melting temperature (Tm), X = T” value (5′-d(T)10) was 79.0 °C and the “Melting temperature (Tm), X = T, cooling curve” value (5′-d(T)10) was “(41.0) °C”. For the same substance, the “Hysteresis of melting curves against DNA” value (5′-d(T)10; [11]) was “significant hysteresis was detected”, the “ΔTm/mod towards DNA” value (5′-d(T)10; [12]) was “+2.5 °C” and the “Recognition of 5′-d(T)10 (sequence specificity)” value (5′-d(T)10; from mismatch Tm values of Table 3) was “sequence specific”. For the same substance, the “Lowering of Tm at pH 9 instead of pH 7, against DNA” value (5′-d(T)10; [13]) was “about 3.5 °C”, the “Melting temperature (Tm), X = C” value [2] was 71.0 °C and the “Melting temperature (Tm), X = C, cooling curve” value [2] was 36.0 °C. For the same substance, the “Melting temperature (Tm), 5′-r(U)10” value (5′-r(U)10 [3]) was 60.0 °C, the “Melting temperature (Tm), 5′-r(U)10, cooling curve” value (5′-r(U)10 [3]) was 45.5 °C and the “Hysteresis of melting curves against RNA” value (5′-r(U)10 [3]; [11]) was “significant hysteresis was detected”. The “ΔTm/mod towards RNA” value (5′-r(U)10 [3]; [12]) was “+2.5 °C”, the “Lowering of Tm at pH 9 instead of pH 7, against RNA” value (5′-r(U)10 [3]; [13]) was ~1.5 °C and the “Melting temperature (Tm), X = A” value ([4]; heating curve, medium salt buffer, pH 7.0) was 67.5 °C. For the same substance, the “Melting temperature (Tm), X = A, cooling curve” value ([4]; value in parentheses = cooling curve) was 35.5 °C.

In the case of “H-(A*)10-LysNH2 [PNA 2020, reference compound]”, the “Tm depression per modification as compared to unmodified PNA against r(U)10” value (5′-r(U)10 [5]) is listed as 1 °C and the “Melting temperature (Tm), 5′-r(U)10” value (5′-r(U)10 [3]) is listed as 25.5 °C.

For H-(T#)5-LysNH2 [PNA 2121], the “Melting temperature (Tm), Poly dA” value (poly dA) was 78.5 °C, the “Melting temperature (Tm), Poly dA, measured from 90 to 10 °C” value (poly dA) was 44.0 °C and the “Melting temperature (Tm), Poly A” value (poly A) was 79.0 °C. The “Melting temperature (Tm), Poly A, measured from 90 to 10 °C” value (poly A) was 51.5 °C.

In the case of “H-(T)5-LysNH2 [PNA 1164, reference compound]”, the “Melting temperature (Tm), Poly dA” value (poly dA) is reported as 53.0 °C, the “Melting temperature (Tm), Poly dA, measured from 90 to 10 °C” value (poly dA) is reported as 45.5 °C and the “Melting temperature (Tm), Poly A” value (poly A) is reported as 64.0 °C. The “Melting temperature (Tm), Poly A, measured from 90 to 10 °C” value (poly A) was 58.5 °C.

For “H-CTC ATA CTC T-Lys-NH2 [PNA 2232] (CTCATACTCT; all peptide nucleic acid (PNA), 3' {LysNH2}; further chemistry not fully specified) [pyr PNA oligomer of 10 monomers]”, the “Tm, DNA parallel, down” value [6] was “(61.5°) °C”, the “Tm, RNA antiparallel, down” value [7] was “(41.0°) °C” and the “Tm, DNA antiparallel, down” value [8] was “(58.0°) °C”.

In the case of “H-CTC ATA CTC T-Lys-NH2 [PNA 2244] (CTCATACTCT; all peptide nucleic acid (PNA), 3' {LysNH2}) [aeg PNA oligomer of 10 monomers, reference compound]”, the “Tm, DNA parallel, down” value [6] is reported as “(43.5°) °C”, the “Tm, DNA parallel, up” value [6] is reported as 44.0° °C and the “Tm, DNA antiparallel, down” value [8] is reported as “(43.0°) °C”. For the same substance, the “Tm, DNA antiparallel, up” value ([8]; medium salt buffer: 100 mM NaCl, 10 mM Na-phosphate, 0.1 mM EDTA) was 45.0° °C.

With “H-Gly-(A)10-NH2 [PNA 186, reference compound]” the “Melting temperature (Tm), X = G” value [1] was 40.5 (40.5) °C, the “Melting temperature (Tm), X = G, cooling curve” value [1] was 40.5 (40.5) °C and the “Melting temperature (Tm), 5′-d(T)10” value (5′-d(T)10) was 55.5 (55.5) °C. For the same substance, the “Melting temperature (Tm), 5′-d(T)10, cooling curve” value (5′-d(T)10) was 55.5 (55.5) °C, the “Melting temperature (Tm), X = T” value (5′-d(T)10) was 55.5 °C and the “Melting temperature (Tm), X = T, cooling curve” value (5′-d(T)10) was “(55.5) °C”. The “Melting temperature (Tm), X = C” value [2] was 36.5 (36.5) °C, the “Melting temperature (Tm), X = C, cooling curve” value [2] was 36.5 (36.5) °C and the “Melting temperature (Tm), 5′-r(U)10” value (5′-r(U)10 [3]) was 35.5 (35.5) °C. For the same substance, the “Melting temperature (Tm), 5′-r(U)10, cooling curve” value (5′-r(U)10 [3]) was 35.5 (35.5) °C.

In the case of H-TAC-TCA#-TAC-TCT-LysNH2 [PNA 2104], the “Melting temperature (Tm), DNA” value [9] is reported as 28.5 °C and the “Melting temperature (Tm), RNA” value [10] is reported as 44.5 °C.

In the case of “H-TAC-TCA*-TAC-TCT-LysNH2 (TACTCATACTCT; chemistry not fully specified) [PNA 2075, PNA dodecamer with one A* = (3S, 5R) pyrrolidone PNA monomer]”, the “Melting temperature (Tm), DNA” value [9] is reported as 41.0 °C and the “Melting temperature (Tm), RNA” value [10] is reported as 53.8 °C.

With “H-TAC-TCA-TAC-TCT-LysNH2 (TACTCATACTCT; all peptide nucleic acid (PNA), 3' {LysNH2}) [PNA 2005, unmodified PNA dodecamer]” the “Melting temperature (Tm), DNA” value [9] was 49.5 °C and the “Melting temperature (Tm), RNA” value [10] was 59.5 °C.
